Data published in PubChem BioAssay (NCI).
Values joined by “and” are separate entries in the source; they are usually repeats but may differ in a detail not shown here. Equal entries are not always repeated.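 Briefly, cells in 96-well plates were exposed to five compound concentrations for 48 h, and endpoints were estimated by linear interpolation. GI50 is the concentration that inhibits growth by half. Definition used: TGI = concentration required for complete inhibition of growth.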

Key:
Experiment in all cases: NCI tumour cell line growth inhibition, 48 h
[1] = system: HOP-18 NSCLC
[2] = system: LXFL 529 NSCLC
[3] = system: M19-MEL melanoma
[4] = system: RXF-631 renal
[5] = system: XF 498 CNS
[6] = system: P388 leukemia
[7] = system: P388/ADR leukemia
[8] = system: SN12K1 renal

SMILES	TGI [1]	TGI [2] [µM]	TGI [3] [µM]	TGI [4] [µM]	TGI [5] [µM]	GI50 [1] [µM]	TGI [6] [µM]	TGI [7] [µM]	TGI [8] [µM]
O=C(NCc1ccc2ccc3cccnc3c2n1)c1ccc[n+](Cc2ccccc2)c1	> 100 µM	> 100	> 100	> 100	> 100				
CCN(CC)c1ccc(N=Nc2ccc(-c3nc4cccn(C)c-4n3)cc2)cc1	89.9 µM	15.8	15.9	33.7	28.1				
COc1cc2c(c(OC)c1OC)-c1ccc(SC)c(=O)cc1C(CC(=O)Oc1cccc(F)c1)C2 (configuration not stated)	> 100 µM	> 40.8	16.2	20.7	36.8				
CC1(C)C(=O)C(=Cc2ccco2)C1=O	> 100 µM	> 100	> 100	> 100	> 100				
O=c1[nH]c(=O)n(C2CC(O)C(CO)O2)cc1COCC(F)(F)F (configuration not stated)		> 100	> 100	> 100	> 100				
O=C(N/C(=C/c1cccc([N+](=O)[O-])c1)c1nc2ccc(Cl)cc2[nH]1)c1ccccc1	> 100 µM	> 100	> 100	27					
C/C(O)=C(\N=O)C(=O)NCc1ccccc1	> 100 µM	> 100		> 100					
CC1=C(C(=O)Nc2ccccc2)C(c2cc(Cl)cc(Cl)c2)C(C(=O)Nc2ccccc2)=C(C)N1	26.6 µM	17.9	26.4	63.5	27.5				
COC(=O)CC(C(C(C)=O)C(=O)OCc1ccccc1)N1C(=O)OC(c2ccccc2)C1c1ccccc1 (configuration not stated)	51.1 µM and > 100 µM	> 100	> 100	> 100	> 100	> 100			
CC(C)C(=S)N(C)O		> 100	> 57.4	> 100					
COc1ccc2c(c1)CCc1c(CO)c(COC(=O)NC(C)C)n(C)c1-2	13.1 µM	15.9	23.3	> 100	> 62.6		3.54	6.22	17.2
CC(=O)OC1C(O[C@H]2CC[C@]34O[C@]35CC[C@]3(C)C(C6(C)CC[C@@H](C(C)(C)O)O6)[C@@H](O)CC3(C)[C@@H]5CC(OC3OC(CO)C(O)C(O)C3O)C4C2(C)C)OCC(O)C1O (some centres not stated)	> 100 µM	> 100	> 100	> 100	> 100				
C/C(CC(=O)Nc1ccc(NC(=O)C/C(C)=N\NC(N)=O)cc1)=N/NC(N)=O	> 100 µM	> 100	> 100	> 100	> 100				
COC(=O)/C(=C/c1ccc(OC)cc1)C(C(=O)O)=C1CCCCC1		> 100	> 100	> 100	> 100				
CCC(C)(O)c1cn(-c2ccc(S(=O)(=O)O)cc2)nn1 (configuration not stated)	> 100 µM	> 100	> 100	> 100	> 100				
COc1cccc2nc3c(C(=O)NCCN(C)C)cccc3nc12	> 79.4 µM	42.4	22	> 67.2	29.1				
